Data set [1] concerns the target T1, CCKBR (Homo sapiens, UniProt P32239).
T1 construct: expressed in transfected cells; host or cells: CHO cells (CHO-CCKBR)
T1 sequence (P32239 1-447): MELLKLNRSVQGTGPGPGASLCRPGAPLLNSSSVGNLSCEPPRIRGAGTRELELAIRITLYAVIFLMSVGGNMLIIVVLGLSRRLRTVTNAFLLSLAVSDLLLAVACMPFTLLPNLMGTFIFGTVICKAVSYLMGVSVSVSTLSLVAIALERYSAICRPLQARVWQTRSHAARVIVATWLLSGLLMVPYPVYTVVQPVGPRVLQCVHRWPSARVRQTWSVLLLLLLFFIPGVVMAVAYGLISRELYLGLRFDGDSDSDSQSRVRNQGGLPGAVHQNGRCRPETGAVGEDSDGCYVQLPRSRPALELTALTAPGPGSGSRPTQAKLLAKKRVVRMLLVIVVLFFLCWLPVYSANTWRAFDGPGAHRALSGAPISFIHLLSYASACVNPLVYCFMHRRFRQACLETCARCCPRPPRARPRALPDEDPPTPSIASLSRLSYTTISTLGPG
Briefly: Calcium response (Fluo-8 No Wash Calcium Assay Kit) in GPCR-overexpressing CHO cells. Type of data set: cell-based. As for the experimental part: In vitro screening system, HT-267 have been tested and measured calcium response by Fluo-8 No Wash Calcium Assay Kit in GPCRs overexpressed CHO cells, including CHO-CCKBR, CHO-CCKAR, CHO-HTR2B cells. These tests and measurements are performed as described in CN 113929737 A by Tortorella, et al., assigned to Regenerative Medicine and Health Innovation Centre Co., Ltd., et al., published on Jan. 14, 2022.

Data set [2] in a line: in vivo.
Data set [3] deals with auditory thalamocortical pathway. Briefly: HFS-induced thalamocortical LTP in CCK-KO mice with infusion into ACx (fEPSP slope). Type of data set: in vivo. The note with it: HT-267 5 μM, 0.5 μl into ACx, n=6, p<0.0001, FIG. 5C. The source says:
The electrical stimulation is generated by an ISO-Flex isolator (A.M.P.I., Israel), which is controlled by a multifunction processor (RX6, TDT). The electrical current pulses for baseline test are 0.5 ms, 50-150 μA and presented every 10 s. The theta burst stimulation (TBS) contains four trails of 10 bursts at 5 Hz with the interval of 10 s between the trails, and each burst consists of 5 pulses at 100 Hz.
[…], two customized microelectrode arrays with four tungsten electrodes each, impedance: 0.5-1 MS2 (recording), and 200-500 kΩ (ES) (FHC, U.S.), are used for the auditory cortical neuronal activity recording and medial geniculate body ventral division (MGv) electrical stimulation and monitoring, respectively. […] 70 dB, 100 ms, noise bursts are presented every 10 s during the insertion of the electrode arrays, and neuronal activities are monitored as the electrode arrays are lowered until robust noise responses are achieved on both arrays. The final stimulating and recording positions are determined by maximizing the cortical field excitatory postsynaptic potential (fEPSP) amplitude triggered by the electrical stimulation in MGv.
The fEPSPs, which are elicited by 0.5 ms electrical current pulses, are amplified (×1000) and filtered (1 Hz-5 kHz), recorded with a 25 kHz sampling rate, and stored in a PC by OpenEx software (TDT). Before the recording, an input-output function is measured. […]

In data set [4] the test system is noise-induced tinnitus mice. In words: Tinnitus mouse model, gap pre-pulse inhibition of the acoustic startle reflex (GPIAS) with sound therapy. Type of data set: in vivo. The settings on record: 0.2 mg/kg intraperitoneal, one week (4 treatment days), combined with sound exposure; 12.6k, 16k, 20.1k, 28.7k Hz; FIGS. 6F-6I. As for the experimental part: HT-267 is tested in the tinnitus mouse model. […] 7-9 weeks after tinnitus induction, more than 50% of mice developed tinnitus.
The inventors use the standard approach for assessing tinnitus in a rodent model, namely gap pre-pulse inhibition of the acoustic startle reflex (GPIAS) (FIGS. 2A-B). […] (Upper) Background sound and startle speakers are placed 10 and 13 cm respectively, from the point of microphone calibration. Signals from three force sensors placed under the testing tube in a triangular formation are averaged in a custom-made circuit and transmitted to TDT digital signal processor (DSP) for further analysis. (Lower) Timeline of a single GPIAS testing session. A GPIAS testing session consists of 3 blocks, lasting 36 minutes in total. The first block is the acclimation phase, lasting five minutes, where white noise is played from the “Cue” speaker for 5 minutes. Block two is the startle acclimation phase. To prevent outlier trials at the beginning of the testing session, 10 startle-only trials without any background sound are delivered to the animal. After block two, block three takes place, lasting 30 minutes. The 30 minute-long GPIAS session consisting of 300 individual trials (Five different background (BG) frequencies tested, for both GAP and NO_GAP conditions with 30 repeats for each BG frequency×GAP/NO_GAP condition pair). Each square represents one minute in the timeline. […]

In data set [5] the test system is auditory thalamocortical pathway. In words: Thalamocortical LTP induction by CCK injection in the auditory cortex with low-frequency stimulation of MGv (fEPSP slope). Format: in vivo. The note with it: CCK 1 μM, 1 μl into ACx, n=8, p<0.001, FIG. 3E.
The mark [6] stands for this setting: elimination half-life (t1/2) in plasma.

The values that follow come from patent US20240238378A1, “METHODS AND CCK-B RECEPTOR AGONISTS FOR TREATING TINNITUS” (City University of Hong Kong, priority 2023, published 2024).

As usually defined, the EC50 is the concentration giving half of the maximal effect. By Tmax is commonly meant the time from dosing to the highest level. The term half-life denotes the time in which the quantity being followed falls by half. Higher therefore signals slow loss.

Take `CSCCC(NC(=O)[C@H](N)Cc1c[nH]c2ccccc12)C(=O)N[C@@H](CC(=O)O)C(=O)N[C@@H](Cc1cccc(Br)c1)C(N)=O` (some centres unmarked) [HT-267]: in data set [1] (CHO-CCKBR cells), the EC50 was roughly 0.05 nM. The “receptor specificity of calcium response” value in data set [1] (CHO-CCKBR vs CHO-CCKAR and CHO-HTR2B cells, FIG. 1) is on record as “specifically activates CCKBR”. Besides, in data set [2], the Tmax was roughly 1.98 min, the blood-brain barrier passage result is “passes BBB easily” and the “uptake rate of brain” value is on record as “about 21.89%”. Moreover, the half-life in data set [2] (setting [6]) is roughly 105 min. Moreover, the half-life in data set [2] (t1/2 in brain) was roughly 522 min. For the same compound, the “rescue of HFS-induced thalamocortical LTP (normalized fEPSP slope)” value in data set [3] is “abolished LTP could be rescued”. In addition, the “change of GPIAS ratio pre- vs post-treatment” value in data set [4] was “significantly reduces”.

`CSCC[C@H](NC(=O)C(N)Cc1c[nH]c2ccccc12)C(=O)NC(CC(=O)O)C(=O)N[C@@H](Cc1ccccc1)C(N)=O` (some centres unmarked) [CCK-4, Cholecystokinin-4, reference compound] showed a half-life in data set [2] (setting [6]) of roughly 13 min.

With cholecystokinin [CCK], in data set [5], the “normalized fEPSP slope after injection and LFS” value is recorded as “lead to an enhancement in fEPSP”.
